Read-outs that look alike come from different tables or passages of the source.
Assays:
BDCM cells = assay type: cell-based; conditions: GTP-capped poly(A)-tailed Renilla luciferase RNA
[1] = target: vaccinia capping enzyme (guanine 7-methyltransferase activity) (Vaccinia virus, UniProt P04298); assay type: biochemical
vaccinia capping enzyme = vaccinia capping enzyme (Vaccinia virus, UniProt P04298); assay type: biochemical
HeLa cells = assay type: cell-based; conditions: GTP-capped poly(A)-tailed Renilla luciferase RNA
wheat germ lysate = assay type: biochemical; conditions: wheat germ lysate, poly(A)-tailed Renilla luciferase RNA
[2] = tested on: rabbit reticulocyte lysate; assay type: biochemical; conditions: rabbit reticulocyte lysate
[3] = target: RNA guanyltransferase activity of the vaccinia capping enzyme system (Vaccinia virus, UniProt P04298); conditions: permeabilized vaccinia virions; cited from earlier work
[4] = tested on: tobacco acid pyrophosphatase (TAP); assay type: biochemical; conditions: capped RNA prepared per Method 6
[5] = target: vaccinia mRNA (nucleoside-2′-O—) methyltransferase (Vaccinia virus, UniProt P07617); assay type: biochemical

Nc1nc2c(ncn2[C@@H]2O[C@H](COP(=O)(O)OP(=O)(O)OP(=O)(O)O)[C@@H](O)[C@H]2O)c(=O)[nH]1 [GTP, reference compound]
RLUs with cap I structure relative to cap 0 structure (BDCM cells): about 1.3 times higher | conversion of 51-base primary RNA transcript into 52-base capped RNA (in words) [1]: quantitatively converted | methylation of the N^7 position of the cap nucleotide (radioactive methyl group in 52-base band) [1]: contained the radioactive methyl group | conversion of 51-base primary RNA transcript to 52-base capped RNA (in words) (vaccinia capping enzyme): quantitatively converted | RLUs with cap I structure relative to cap 0 structure (HeLa cells): about 2.2 times higher

Nc1nc2c(ncn2[C@H]2C[C@H](O)[C@@H](COP(=O)(O)OP(=O)(O)OP(=O)(O)O)O2)c(=O)[nH]1 [2′-dGTP, 2′-deoxyguanosine-5′-triphosphate]
relative translation efficiency (wheat germ lysate; cap 0 structure, GTP-capped cap 0 RNA = 100%): 54% | relative translation efficiency (wheat germ lysate; cap I structure): 54% | conversion of 51-base primary RNA transcript to 52-base capped RNA (in words) (vaccinia capping enzyme): quantitatively converted | average relative translation efficiency ([2]; poly(A)-tailed Renilla luciferase RNA, cap 0 structure, GTP-capped cap 0 RNA = 100%): 118% | average relative translation efficiency ([2]; poly(A)-tailed Renilla luciferase RNA, cap I structure): 84% | average relative translation efficiency ([2]; poly(A)-tailed firefly luciferase RNA, cap I structure): 128% | activity relative to GTP in [^32P]-PPi exchange assay [3]: approximately 6% | removal of the cap nucleotide by tobacco acid pyrophosphatase (51-base band on PAGE) [4]: 51-base band was observed | methylation of the 2′-hydroxyl of the 5′-penultimate nucleotide by mRNA (nucleoside-2′-O—) methyltransferase [5]: 52-base radioactive band was observed
